Experimental data as given in US11226337B2, “Chemoproteomic profiling of protein electrophilic and oxidative post-translational modifications” (Zenagem, LLC, priority 2017, dated 2022).

Experiments:
[1] = molecular target: T1, CTSC Dipeptidyl peptidase 1 (P53634) (Homo sapiens, UniProt P53634); test: SILAC RP-ABPP; format: cell-based; details: SILAC H/L
T1 construct: In Situ Labelling of Cells with Hydrazine Probes for MS Experiments; endogenous in cells; host or cells: HEK293T and/or MDA-MB-231
Method: (§1) For MS-based experiments, labelling was performed in a similar manner as described above in Example 2, maintaining the same concentrations of probes. Modifications to this protocol included using isotopically ‘light’ and ‘heavy’ SILAC cells that were also grown to near complete confluence prior to treatment. Isotopically light cells were treated with the non-clickable hydrazine probe (at the same concentration as the probe in ‘enrichment’ experiments) or the probe in the presence of 10-fold excess non-clickable hydrazine probe as a competitor (in ‘competition’ experiments). Isotopically heavy cells were treated with the probe for both types of experiments. These treatments were performed in non-SILAC media. Following treatments, cells were washed with cold PBS to remove the probe-containing media, harvested by scraping, collected by centrifugation (1,400 g, 3 min, 4° C.), washed again by resuspension in cold PBS and frozen as pellets at −80° C. until use.
(§2) The fractionated equimolar mixture of heavy and light soluble proteomes (1-1.5 mg) was diluted to 1 mL in PBS. Click reactions were scaled accordingly (except for biotin-azide) to maintain final concentrations of 0.1 mM TBTA, 1 mM CuSO4, 100 μM biotin-azide (10 mM in DMSO) and 1 mM TCEP. The mixture was vortexed and placed on a rotator at ambient temperature for 1 hour. Sequential addition of and mixture with pre-chilled methanol (MeOH, 2 mL), chloroform (CHCl3, 0.5 mL) and PBS (1 mL) on ice quenched the reaction. The precipitated proteome was centrifuged (5,000 g, 10 min, 4° C.) to fractionate the protein interphase from the organic and aqueous solvent layers. The protein pellet was washed with cold 1:1 MeOH:CHCl3 (3×1 mL), mildly sonicated in cold 4:1 MeOH:CHCl3 (2.5 mL) and pelleted once more by centrifugation (5,000 g, 10 min, 4° C.) to ensure click reagents were efficiently removed.
(§3) Heavy and light parent ion chromatograms associated with successfully identified peptides were extracted and compared using CIMAGE software as previously described^69. At least one ion of a co-eluting heavy-light pair must be accurately identified from a fragmentation event that occurred within the retention time window (±10 min) of parent ion elution. To ensure that the correct pair of peaks is quantified, chromatograms are extracted within a 10 ppm error tolerance of the predicted m/z, the signal-to-noise ratio must be >2.5 and the ‘co-elution correlation score’ and ‘envelope correlation score’ must have R^2 values ≥0.8. In addition, peptides detected as ‘singletons,’ where only the heavy ion of a peptide pair was identified, but for which passed all other filtering parameters, are given a default assigned ratio of ‘20,’ which is defined as any measured ratio that is ≥20.
(§4) To further eliminate false positives and any stochastic variability in the data, protein ratios were then determined by the median peptide ratio derived from three or more unique quantified peptides. Protein ratios that complied with these criteria from a single experiment were then averaged with ratios acquired from ≥3 replicates to provide final values for each type of experiment in both cell lines with both probes. […] Most importantly, there are no robustly measured ratios for proteins identified as probe 1 targets that had measured ratios of ˜1 with probe 2. Probe targets in HEK293T and MDA-MB-231 cells represent data combined from ≥3 independent biological replicates with each cell type performed with several independent batches of synthesized probes over a period of almost two years.
(§5) Analogous experiments were also performed with the aryl hydrazine probe 2 (1 mM, 0.5 hour), which furnished a larger list of high-reactivity proteins (33 in total; Table 3) that contained several of the targets of probe 1 (compared in Table 4), as well as additional proteins that may reflect an expanded chemical reactivity for probe 2.

[2] = molecular target: T2, DENR Densityregulated protein (O43583) (Homo sapiens, UniProt O43583); test: SILAC RP-ABPP; format: cell-based; details: SILAC H/L
T2 construct: In Situ Labelling of Cells with Hydrazine Probes for MS Experiments; endogenous in cells; host or cells: HEK293T and/or MDA-MB-231
T2 sequence (O43583 1-198): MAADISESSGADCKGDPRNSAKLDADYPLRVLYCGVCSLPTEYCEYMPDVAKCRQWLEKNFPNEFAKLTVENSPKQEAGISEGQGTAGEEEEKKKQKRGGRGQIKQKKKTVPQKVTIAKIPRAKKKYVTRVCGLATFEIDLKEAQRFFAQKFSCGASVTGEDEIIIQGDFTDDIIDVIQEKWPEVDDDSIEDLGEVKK
Method: as §1, §2, §3, §4, §5

[3] = molecular target: T3, FTH1 Ferritin heavy chain (P02794) (Homo sapiens, UniProt P02794); test: SILAC RP-ABPP; format: cell-based; details: SILAC H/L
T3 construct: In Situ Labelling of Cells with Hydrazine Probes for MS Experiments; endogenous in cells; host or cells: HEK293T and/or MDA-MB-231
Method: as §1, §2, §3, §4, §5

[4] = molecular target: T4, FTO Alphaketoglutaratedependent dioxygenase (Q9C0B1) (Homo sapiens, UniProt Q9C0B1); test: SILAC RP-ABPP; format: cell-based; details: SILAC H/L
T4 construct: In Situ Labelling of Cells with Hydrazine Probes for MS Experiments; endogenous in cells; host or cells: HEK293T and/or MDA-MB-231
Method: as §1, §2, §3, §4, §5

HEK293T cells = test: gel-based in situ probe labelling (rhodamine-azide, in-gel fluorescence); format: cell-based, human; details: soluble and membrane proteomes, 30 minutes
Method: For gel-based experiments, cells were plated and grown to near complete confluence at the time of treatment. Cells were washed with cold phosphate buffered saline (PBS, pH 7.4) and replenished with serum-free DMEM (˜15% of normal passage volume, e.g. a 10 cm plate normally passaged with 10 mL media received 1.5 mL) supplemented with 10 mM Na-HEPES buffer (pH 7.5). Unless otherwise indicated, cells were incubated with probes (3 mM and 1 mM for probes 1 and 2, respectively) in the absence or presence of 10-fold excess non-clickable competitor probes (30 mM and 10 mM for 3 and 4, respectively) for 0.5 hour at 37° C. When applicable, probe and competitor were premixed before co-administering to the cells.
The cells were lysed, and the cell proteomes were conjugated to a rhodamine-azide (Rh—N3) reporter tag.
Soluble proteomes from treated cells were diluted to 1 mg/mL. To each sample (50 μL), a freshly prepared “click” or CuAAC reagent mixture (6 μL) containing 0.1 mM tris(benzyltriazolylmethyl)amine (TBTA) (3 μL/sample, 1.7 mM in 4:1 DMSO:t-BuOH), 1 mM CuSO4 (1 μL/sample, 50 mM in H2O), 25 μM azide-rhodamine (1 μL/sample, 1.25 mM in DMSO), and freshly prepared 1 mM tris(2-carboxyethyl)phosphine (TCEP) (1 μL/sample, 50 mM in PBS or H2O) was added to conjugate the fluorophore to probe-labelled proteins. TBTA was purchased from TCI and azide-rhodamine was synthesized as previously described^64. Upon addition of the click mixture, each reaction was immediately mixed by vortexing and then allowed to react at ambient temperature for 1 hour before quenching the reactions with SDS loading buffer (4× stock, 17 μL). Proteins (˜25 μg total protein loaded per gel lane) were resolved by SDS-PAGE (10% acrylamide) and visualized by in-gel fluorescence scanning on a Hitachi FMBIO-II or BioRad ChemiDoc MP flatbed fluorescence scanner.

[5] = probe 1 vs probe 1+10x probe 3, cell line not given
[6] = probe 2 1 mM 0.5 h vs probe 4, MDA-MB-231
[7] = probe 2 vs probe 2+10x probe 4, MDA-MB-231

enrichment ratioavg [1, 6]	competition ratioavg [1, 7]	enrichment ratioavg [2, 6]	competition ratioavg [2, 7]	enrichment ratioavg [3, 6]	competition ratioavg [3, 7]	enrichment ratioavg ([4]; probe 2 1 mM 0.5 h vs probe 4, HEK293T)	competition ratioavg ([4]; probe 2 vs probe 2+10x probe 4, HEK293T)	Compound	competition ratioavg [1, 5]	competition ratioavg [2, 5]	enrichment ratioavg ([3]; probe 1 3 mM 0.5 h vs probe 3, cell line not given)	competition ratioavg [3, 5]	competition ratioavg [4, 5]	protein labeling, in-gel fluorescence (HEK293T cells; hydrochloride)	protein labeling, in-gel fluorescence (HEK293T cells)
								C#CCNN.Cl [probe 1, prop-2-yn-1-ylhydrazine hydrochloride]	3	1	1	1	1	Concentration-dependent protein labeling	
20	9	20	5	20	5	13	5	C#CCCNC(=O)c1ccc(NN)cc1.Cl [probe 2, N-(but-3-yn-1-yl)-4-hydrazinylbenzamide hydrochloride]							Concentration-dependent protein labeling
